ChEMBL document CHEMBL1142351, “Synthesis and characterization of 8-ethynyl-1,3-dihydro-benzo[b][1,4]diazepin-2-one derivatives: part 2. New potent non-competitive metabotropic glutamate receptor 2/3 antagonists” (Bioorg Med Chem Lett, 2008)
Calls of active or inactive are those of the source. The rule behind the calls is not given here.

Legend:
[1] = molecular target: T1, Metabotropic glutamate receptor 2 (Rattus norvegicus, UniProt P31421); assay: Displacement of [3H]LY354740 from rat recombinant mGluR2 expressed in CHO cells; type: cell-based
[2] = molecular target: T1, Metabotropic glutamate receptor 2; assay: Antagonist activity at rat mGluR2 assessed as effect on (1S,3R)-ACPD-induced inhibition of forskolin-stimulated cAMP production; type: functional
[3] = molecular target: Metabotropic glutamate receptor 2 (Rattus norvegicus) (UniProt P31421); assay: Antagonist activity at rat mGluR2 transiently transfected in CHO cells expressing GIRKs assessed as inhibition of glutamate-induced reversible inward K+ current; type: functional, cell-based
[4] = molecular target: Metabotropic glutamate receptor 3 (Rattus norvegicus) (UniProt P31422); assay: Antagonist activity at rat mGluR3 transiently transfected in CHO cells expressing GIRKs assessed as inhibition of glutamate-induced reversible inward K+ current; type: functional, cell-based
[5] = molecular target: Metabotropic glutamate receptor 8 (Rattus norvegicus, UniProt P70579); assay: (§1) Displacement of [3H]-L-AP4 from rat mGluR8
[6] = Binding affinity to NMDA
[7] = Binding affinity to GABAA
[8] = molecular target: Metabotropic glutamate receptor 8 (Rattus norvegicus) (UniProt P70579); assay: as §1
Rattus norvegicus [9] = organism: Rattus norvegicus; assay: Antagonist activity at mGluR group 2 in rat hippocampus assessed as reversal of LY-354740-mediated inhibition of fEPSPs in dentate gyrus; type: functional, tissue-based
Rattus norvegicus [10] = organism: Rattus norvegicus; assay: Antagonist activity at mGluR group 2 in rat hippocampus assessed as blockade of LY-354740-mediated inhibition of fEPSPs after 3 hrs; type: functional, tissue-based
[11] = molecular target: T1, Metabotropic glutamate receptor 2; assay: Displacement of [3H]LY354740 from rat mGluR2

T1 sequence (P31421 whole entry): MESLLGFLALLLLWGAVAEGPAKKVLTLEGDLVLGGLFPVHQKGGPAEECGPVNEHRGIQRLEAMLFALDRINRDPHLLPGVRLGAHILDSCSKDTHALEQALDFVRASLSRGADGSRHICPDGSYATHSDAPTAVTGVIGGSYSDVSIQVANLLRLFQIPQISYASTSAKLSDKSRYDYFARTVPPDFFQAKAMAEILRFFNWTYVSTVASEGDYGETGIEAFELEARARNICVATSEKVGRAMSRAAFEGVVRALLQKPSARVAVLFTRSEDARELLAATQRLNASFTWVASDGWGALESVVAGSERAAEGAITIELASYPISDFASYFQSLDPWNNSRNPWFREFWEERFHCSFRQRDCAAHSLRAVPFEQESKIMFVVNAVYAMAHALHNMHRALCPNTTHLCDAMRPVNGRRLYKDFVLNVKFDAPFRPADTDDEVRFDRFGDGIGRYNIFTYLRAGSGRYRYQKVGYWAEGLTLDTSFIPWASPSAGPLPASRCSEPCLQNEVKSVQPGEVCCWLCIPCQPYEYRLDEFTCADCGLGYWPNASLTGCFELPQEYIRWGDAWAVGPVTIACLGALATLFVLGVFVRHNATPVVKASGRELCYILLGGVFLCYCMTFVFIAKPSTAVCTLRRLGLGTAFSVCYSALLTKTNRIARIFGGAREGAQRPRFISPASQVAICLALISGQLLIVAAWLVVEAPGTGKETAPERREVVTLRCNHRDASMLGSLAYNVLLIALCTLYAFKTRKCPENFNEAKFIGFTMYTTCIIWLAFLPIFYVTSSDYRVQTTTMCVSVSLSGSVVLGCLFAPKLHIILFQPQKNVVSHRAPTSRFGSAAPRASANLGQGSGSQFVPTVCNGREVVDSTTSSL
Sequence of Metabotropic glutamate receptor 2 (Rattus norvegicus) (P31421 19-872 limits assumed): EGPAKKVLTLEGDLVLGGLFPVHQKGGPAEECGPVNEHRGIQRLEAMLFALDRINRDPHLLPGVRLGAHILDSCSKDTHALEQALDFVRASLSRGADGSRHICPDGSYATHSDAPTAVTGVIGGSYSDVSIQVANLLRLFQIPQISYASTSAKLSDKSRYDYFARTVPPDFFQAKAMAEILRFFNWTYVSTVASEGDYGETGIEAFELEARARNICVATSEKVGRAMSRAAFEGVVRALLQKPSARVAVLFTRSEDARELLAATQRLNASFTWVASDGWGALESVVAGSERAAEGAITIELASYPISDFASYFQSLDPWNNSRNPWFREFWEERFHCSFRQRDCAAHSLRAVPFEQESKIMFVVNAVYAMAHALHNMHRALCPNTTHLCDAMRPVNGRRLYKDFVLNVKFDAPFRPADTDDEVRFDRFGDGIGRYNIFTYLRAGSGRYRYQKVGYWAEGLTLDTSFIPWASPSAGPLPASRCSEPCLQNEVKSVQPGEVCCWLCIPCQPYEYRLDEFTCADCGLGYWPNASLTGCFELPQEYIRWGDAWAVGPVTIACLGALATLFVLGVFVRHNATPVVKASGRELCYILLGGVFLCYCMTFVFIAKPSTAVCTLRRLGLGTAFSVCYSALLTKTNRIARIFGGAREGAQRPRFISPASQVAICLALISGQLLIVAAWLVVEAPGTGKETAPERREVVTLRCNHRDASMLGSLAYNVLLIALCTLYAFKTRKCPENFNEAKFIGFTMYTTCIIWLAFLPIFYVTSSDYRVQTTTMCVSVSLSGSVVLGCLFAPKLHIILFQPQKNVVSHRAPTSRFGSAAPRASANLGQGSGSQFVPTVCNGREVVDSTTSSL
Sequence of Metabotropic glutamate receptor 3 (Rattus norvegicus) (P31422 23-879 limits assumed): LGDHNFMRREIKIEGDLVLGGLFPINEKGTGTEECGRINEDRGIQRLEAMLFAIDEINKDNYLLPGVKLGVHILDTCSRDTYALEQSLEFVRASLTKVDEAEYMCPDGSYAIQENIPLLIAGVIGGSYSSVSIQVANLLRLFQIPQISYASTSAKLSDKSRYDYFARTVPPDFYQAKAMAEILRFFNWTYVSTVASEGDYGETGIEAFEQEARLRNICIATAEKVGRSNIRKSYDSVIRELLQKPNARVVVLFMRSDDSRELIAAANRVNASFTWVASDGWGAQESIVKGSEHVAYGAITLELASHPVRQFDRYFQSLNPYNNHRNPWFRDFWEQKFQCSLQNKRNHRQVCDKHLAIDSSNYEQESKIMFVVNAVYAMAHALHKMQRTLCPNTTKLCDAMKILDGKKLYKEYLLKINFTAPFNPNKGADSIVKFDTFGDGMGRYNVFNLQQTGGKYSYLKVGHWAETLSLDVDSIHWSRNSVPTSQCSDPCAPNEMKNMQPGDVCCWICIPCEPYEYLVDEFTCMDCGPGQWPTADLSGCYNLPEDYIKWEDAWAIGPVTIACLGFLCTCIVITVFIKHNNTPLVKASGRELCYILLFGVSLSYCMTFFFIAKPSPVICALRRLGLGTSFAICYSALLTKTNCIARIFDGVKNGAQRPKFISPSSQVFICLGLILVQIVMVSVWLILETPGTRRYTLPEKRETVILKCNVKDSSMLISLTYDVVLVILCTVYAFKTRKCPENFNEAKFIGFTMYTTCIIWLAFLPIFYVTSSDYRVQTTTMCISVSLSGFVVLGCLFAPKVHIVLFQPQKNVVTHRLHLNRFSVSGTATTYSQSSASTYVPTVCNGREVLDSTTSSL
Sequence of Metabotropic glutamate receptor 8 (Rattus norvegicus) (P70579 whole entry): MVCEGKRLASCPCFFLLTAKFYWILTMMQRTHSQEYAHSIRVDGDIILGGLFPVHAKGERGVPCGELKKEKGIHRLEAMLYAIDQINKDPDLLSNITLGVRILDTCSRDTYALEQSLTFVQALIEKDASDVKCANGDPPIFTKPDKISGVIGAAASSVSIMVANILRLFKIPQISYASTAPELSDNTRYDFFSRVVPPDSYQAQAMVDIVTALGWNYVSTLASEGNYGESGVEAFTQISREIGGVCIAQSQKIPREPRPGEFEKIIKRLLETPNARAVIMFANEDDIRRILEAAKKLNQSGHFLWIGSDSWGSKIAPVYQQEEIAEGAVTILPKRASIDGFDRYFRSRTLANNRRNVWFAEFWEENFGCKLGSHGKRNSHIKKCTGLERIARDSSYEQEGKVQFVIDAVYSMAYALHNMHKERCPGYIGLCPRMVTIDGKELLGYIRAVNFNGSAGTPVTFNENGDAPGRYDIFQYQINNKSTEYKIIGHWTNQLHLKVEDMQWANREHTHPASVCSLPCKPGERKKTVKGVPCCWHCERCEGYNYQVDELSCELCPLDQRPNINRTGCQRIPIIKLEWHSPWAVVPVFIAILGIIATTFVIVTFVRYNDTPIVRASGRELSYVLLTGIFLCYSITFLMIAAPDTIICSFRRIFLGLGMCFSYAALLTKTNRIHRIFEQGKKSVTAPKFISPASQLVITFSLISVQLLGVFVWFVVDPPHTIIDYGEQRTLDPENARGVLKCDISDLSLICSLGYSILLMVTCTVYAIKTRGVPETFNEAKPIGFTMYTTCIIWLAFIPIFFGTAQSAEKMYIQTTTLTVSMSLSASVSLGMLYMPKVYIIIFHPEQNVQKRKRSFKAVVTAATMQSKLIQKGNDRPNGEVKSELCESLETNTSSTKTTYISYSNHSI
Sequence of Metabotropic glutamate receptor 8 (P70579 whole entry): as above

Compound | IC50 [1] [nM] | IC50 [2] [nM] | further results
O=C1CC(c2cccc(-n3nncc3CO)c2)=Nc2cc(O)c(C#Cc3ccc(F)cc3)cc2N1 | 378 | – | –
O=C1CC(c2cccc(-n3ccnc3)c2)=Nc2cc(OCCO)c(C#Cc3ccc(F)cc3)cc2N1 | 46 | – | –
O=C1CC(c2cccc(-n3ccnn3)c2)=Nc2ccc(C#Cc3ccc(F)cc3)cc2N1 | 6 | 12 | –
O=C1CC(c2cccc(-n3ccnc3)c2)=Nc2ccc(C#Cc3ccccc3F)cc2N1 | 20 | 16 | –
O=C1CC(c2cccc(-n3cncn3)c2)=Nc2ccc(C#Cc3ccc(F)cc3)cc2N1 | 98 | – | –
O=C1CC(c2cccc(-n3ccnn3)c2)=Nc2cc(O)c(C#Cc3ccc(F)cc3)cc2N1 | 20 | 17 | Activity [3]: Active; Activity [4]: Active; IC50 [5]: 5000 nM; Activity [6]: inactive; Activity [7]: inactive
O=C1CC(c2cccc(-n3ccnc3)c2)=Nc2cc(O)c(C#Cc3ccc(F)cc3)cc2N1 | 26 | 11 | Activity [3]: Active; Activity [4]: Active; Activity [8]: inactive; Activity [6]: inactive; Activity [7]: inactive; Activity (Rattus norvegicus [9]): Active; Activity (Rattus norvegicus [10]): Active
Cc1ccc2c(c1)NC(=O)CC(c1ccccc1)=N2 | – | – | IC50 [11]: 6400 nM
O=C1CC(c2cccc(-n3ccnc3)c2)=Nc2ccc(C#Cc3ccc(F)cc3)cc2N1 | 9 | 9 | –
Cc1cn(-c2cccc(C3=Nc4ccc(C#Cc5ccc(F)cc5)cc4NC(=O)C3)c2)cn1 | 98 | – | –
O=C1CC(c2cccc(-n3ccnc3)c2)=Nc2ccc(C#Cc3ccccc3)cc2N1 | 13 | 10 | –
O=C1CC(c2cccc(-n3cnnn3)c2)=Nc2ccc(C#Cc3ccc(F)cc3)cc2N1 | 72 | – | –
Cc1cn(-c2cccc(C3=Nc4ccc(C#Cc5ccccc5)cc4NC(=O)C3)c2)c(C)n1 | 170 | – | –
CN(CCO)c1cc2c(cc1C#Cc1ccc(F)cc1)NC(=O)CC(c1cccc(-n3ccnc3)c1)=N2 | 140 | – | –
N#Cc1cccc(C2=Nc3ccc(C#Cc4ccccc4)cc3NC(=O)C2)c1 | – | 17 | –
COCCOc1cc2c(cc1C#Cc1ccccc1)NC(=O)CC(c1cccc(-n3ccnc3)c1)=N2 | 23 | 15 | –
O=C1CC(c2cccc(-n3ccnc3)c2)=Nc2cc(OCCO)c(C#Cc3ccccc3)cc2N1 | 64 | – | –
Cn1ccnc1-c1cccc(C2=Nc3ccc(C#Cc4ccccc4)cc3NC(=O)C2)c1 | 730 | – | –
N#CCOc1cc2c(cc1C#Cc1ccccc1)NC(=O)CC(c1cccc(-n3ccnc3)c1)=N2 | 18 | 13 | –
CN(C)c1cc2c(cc1C#Cc1ccccc1)NC(=O)CC(c1cccc(-n3ccnn3)c1)=N2 | 36 | – | –
